Read-outs that look alike come from different tables or passages of the source.
What was measured:
EGFR^WT = molecular target: T1, EGFR^WT (Homo sapiens, UniProt P00533); experiment: ELISA kinase activity inhibition, wild-type EGFR; assay type: biochemical; conditions: ATP 5 μM, read-out: The average IC50 value (nM) for inhibiting the activity of different tyrosine kinases, EGFR^WT
T1 construct: purchased Eurofins
Description: (§1) EGFR (WT) is a wild-type epidermal growth factor receptor.
(§2) Enzyme-Linked Immunosorbent Assay (ELISA) was used to detect the inhibitory effect of compounds on kinase activity.
(§3) The main experimental steps were as follows: Enzyme reaction substrate Poly (Glu, Tyr)4:1 was diluted with potassium free PBS (10 mM sodium phosphate buffer, 150 mM NaCl, pH 7.2-7.4) to 20 μg/mL, and reacted at 37° C. for 12 hours to 16 hours to coat the enzyme-linked immunosorbent assay plate. ATP solution (final concentration 5 μM) diluted with reaction buffer (50 mM HEPES pH 7.4, 50 mM MgCl2, 0.5 mM MnCl2, 0.2 mM Na3VO4, 1 mM DTT) was added to each well, followed by the test compound or solvent control, then the kinase reaction was initiated and the plate was shaken at 37° C. for 1 hour. The plate was washed three times with T-PBS, then added antibody PY99. The plate was shaken at 37° C. for 0.5 hours. After washing the plate with T-PBS, added horseradish peroxidase-labeled IgG and shaken at 37° C. for 0.5 hours. After washing the plate again, added 2 mg/mL of OPD colorimetric solution and incubated at 25° C. in the dark for 1 minutes to 10 minutes. […] The IC50 values were obtained from the inhibition curve analysis.

EGFR^L858R/T790M/C797S = EGFR^L858R/T790M/C797S (Homo sapiens, UniProt P00533, C797S/L858R/T790M); experiment: ELISA kinase activity inhibition, EGFR L858R/T790M/C797S; assay type: biochemical; conditions: ATP 5 μM, read-out: The average IC50 value (nM) for inhibiting the activity of different tyrosine kinases, EGFR^L858R/T790M/C797S
EGFR^L858R/T790M/C797S, sequence (P00533 25-1210 T790M/C797S/L858R): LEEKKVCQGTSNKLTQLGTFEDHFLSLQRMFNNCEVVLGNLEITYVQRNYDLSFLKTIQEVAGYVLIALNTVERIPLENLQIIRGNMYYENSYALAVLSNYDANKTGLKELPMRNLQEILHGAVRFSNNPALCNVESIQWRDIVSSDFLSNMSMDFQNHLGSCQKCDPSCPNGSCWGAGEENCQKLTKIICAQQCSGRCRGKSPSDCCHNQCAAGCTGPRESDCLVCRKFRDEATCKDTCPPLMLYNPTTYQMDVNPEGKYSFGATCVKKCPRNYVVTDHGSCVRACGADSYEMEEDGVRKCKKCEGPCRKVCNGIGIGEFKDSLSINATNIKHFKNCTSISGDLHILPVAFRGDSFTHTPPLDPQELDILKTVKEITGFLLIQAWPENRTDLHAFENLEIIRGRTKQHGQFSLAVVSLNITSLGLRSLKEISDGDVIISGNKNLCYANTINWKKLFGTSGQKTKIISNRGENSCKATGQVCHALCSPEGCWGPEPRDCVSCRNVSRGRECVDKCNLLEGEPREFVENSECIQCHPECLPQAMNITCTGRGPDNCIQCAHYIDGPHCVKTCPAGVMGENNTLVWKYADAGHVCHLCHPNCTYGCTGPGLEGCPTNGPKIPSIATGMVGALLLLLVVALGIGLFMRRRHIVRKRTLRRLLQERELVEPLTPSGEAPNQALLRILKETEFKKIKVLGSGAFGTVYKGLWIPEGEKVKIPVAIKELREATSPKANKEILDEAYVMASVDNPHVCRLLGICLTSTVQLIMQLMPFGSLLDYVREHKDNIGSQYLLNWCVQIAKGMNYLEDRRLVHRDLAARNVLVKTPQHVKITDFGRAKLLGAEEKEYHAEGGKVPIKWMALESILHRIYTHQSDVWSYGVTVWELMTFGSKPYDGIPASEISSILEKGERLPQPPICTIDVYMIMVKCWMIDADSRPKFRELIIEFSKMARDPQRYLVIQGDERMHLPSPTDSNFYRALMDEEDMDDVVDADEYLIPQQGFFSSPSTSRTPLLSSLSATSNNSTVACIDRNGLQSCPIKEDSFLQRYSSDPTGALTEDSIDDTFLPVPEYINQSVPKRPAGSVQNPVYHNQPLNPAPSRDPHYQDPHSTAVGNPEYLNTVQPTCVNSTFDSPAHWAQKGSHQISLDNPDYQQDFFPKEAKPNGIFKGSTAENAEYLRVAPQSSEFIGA
Description: as §2, §3

EGFR^19del/T790M/C797S = molecular target: T2, EGFR^19del/T790M/C797S (Homo sapiens, UniProt P00533, T790M/C797S, form not given); experiment: ELISA kinase activity inhibition, EGFR 19del/T790M/C797S; assay type: biochemical; conditions: ATP 5 μM, read-out: The average IC50 value (nM) for inhibiting the activity of different tyrosine kinases, EGFR^19del/T790M/C797S
T2 construct: fused on or other part: Probably a GST tag on the cytoplasmic fragment, as in the vendor's product
T2 sequence (P00533 with tags, fused parts or gaps DEL746-750/T790M/C797S, form open): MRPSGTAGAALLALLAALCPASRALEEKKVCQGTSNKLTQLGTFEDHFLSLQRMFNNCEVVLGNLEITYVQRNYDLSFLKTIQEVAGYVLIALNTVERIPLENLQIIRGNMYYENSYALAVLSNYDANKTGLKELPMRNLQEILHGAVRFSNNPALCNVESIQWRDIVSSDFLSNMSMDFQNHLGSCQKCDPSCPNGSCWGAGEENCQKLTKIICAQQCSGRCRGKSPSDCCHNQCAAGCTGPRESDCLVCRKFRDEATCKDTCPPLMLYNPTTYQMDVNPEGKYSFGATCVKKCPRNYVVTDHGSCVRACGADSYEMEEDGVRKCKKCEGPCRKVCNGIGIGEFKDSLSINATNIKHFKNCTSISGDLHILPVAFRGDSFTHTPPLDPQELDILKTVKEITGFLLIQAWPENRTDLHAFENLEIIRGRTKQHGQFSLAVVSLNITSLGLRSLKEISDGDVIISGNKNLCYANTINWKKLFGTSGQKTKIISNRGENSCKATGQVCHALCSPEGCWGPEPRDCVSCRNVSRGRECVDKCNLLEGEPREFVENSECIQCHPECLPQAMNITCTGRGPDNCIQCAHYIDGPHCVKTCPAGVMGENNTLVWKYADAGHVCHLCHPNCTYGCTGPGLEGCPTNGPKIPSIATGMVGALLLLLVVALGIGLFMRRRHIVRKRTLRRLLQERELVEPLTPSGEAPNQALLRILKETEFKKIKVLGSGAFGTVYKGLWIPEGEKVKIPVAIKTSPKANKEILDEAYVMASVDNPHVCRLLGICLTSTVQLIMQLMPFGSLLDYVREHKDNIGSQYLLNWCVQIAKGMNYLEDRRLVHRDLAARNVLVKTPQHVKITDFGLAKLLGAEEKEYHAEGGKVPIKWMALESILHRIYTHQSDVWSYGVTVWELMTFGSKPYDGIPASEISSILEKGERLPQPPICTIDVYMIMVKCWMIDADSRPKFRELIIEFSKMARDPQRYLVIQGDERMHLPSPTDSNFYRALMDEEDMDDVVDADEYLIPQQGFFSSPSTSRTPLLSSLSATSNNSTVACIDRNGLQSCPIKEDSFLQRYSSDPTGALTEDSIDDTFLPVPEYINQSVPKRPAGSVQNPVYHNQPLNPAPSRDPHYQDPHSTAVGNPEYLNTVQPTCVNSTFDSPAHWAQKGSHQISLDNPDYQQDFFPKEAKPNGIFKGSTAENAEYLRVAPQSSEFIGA
Description: as §1, §2, §3

BaF3 parent cell = experiment: CCK-8 cell proliferation, BaF3 parent cell; assay type: cell-based; conditions: Mus musculus, read-out: Average value of IC50 of inhibition against cells growth, BaF3 parent cell
From the text: (§4) Ba/F3 cells were obtained from Deutsche Sammlung von Mikroorganismen und Zellkulturen GmbH (DSMZ). Ba/F3 cells stably expressing EGFR19del/T790M/C797S or EGFR L858R/T790M/C797S were generated by infecting parental cells with corresponding retroviruses. PC-9-OR was a tumor cell model obtained by simultaneously knocking in T790M and C797S mutations into 19del-activating mutation-dependent PC-9 tumor cells using CRISPR technology. This model, which proliferated dependent on EGFR19del/T790M/C797S resistance mutation, was used to evaluate the inhibitory activity of compounds against EGFR19del/T790M/C797S resistance mutants (Cancer Science. 2022; 113:709-720). All cells used in the study were verified by short tandem repeat (STR) analysis conducted by Genesky.
(§5) Tumor cell viability was assessed using a CCK-8 cell counting kit (A311-01/02, Vazyme, Nanjing, China). Cells were seeded at a density of 3000 cells per well into 96-well plates and cultured overnight. Subsequently, the cells were treated with compounds of different concentrations and incubated for 72 hours. After 72 hours, 10 μL of CCK-8 solution was added to each well. The plates were then returned to the incubator and incubated at 37° C. for 2 hours. The absorbance was measured at 450 nm using a microplate reader. A calibration curve was constructed using data obtained from wells containing known numbers of viable cells.

[1] = molecular target: BaF3-EGFR (19del/T790M/C797S) (Homo sapiens, UniProt P00533, T790M/C797S, cells depend on it, form not given); experiment: CCK-8 cell proliferation, BaF3-EGFR(19del/T790M/C797S); assay type: cell-based; conditions: CCK-8, 72 hours; read-out: Average value of IC50 of inhibition against EGFR-mutant cells growth, BaF3-EGFR (19del/T790M/C797S)
BaF3-EGFR (19del/T790M/C797S), sequence (P00533 with tags, fused parts or gaps DEL746-750/T790M/C797S, form open): as above
Description: (§6) Ba/F3 cells were obtained from Deutsche Sammlung von Mikroorganismen und Zellkulturen GmbH (DSMZ). […] All cells used in the study were verified by short tandem repeat (STR) analysis conducted by Genesky.
as §5

[2] = molecular target: BaF3-EGFR (L858R/T790M/C797S) (Homo sapiens, UniProt P00533, T790M/C797S/L858R, cells depend on it); experiment: CCK-8 cell proliferation, BaF3-EGFR(L858R/T790M/C797S); assay type: cell-based; conditions: CCK-8, 72 hours; read-out: Average value of IC50 of inhibition against EGFR-mutant cells growth, BaF3-EGFR (L858R/T790M/C797S)
BaF3-EGFR (L858R/T790M/C797S), sequence (P00533 whole entry T790M/C797S/L858R): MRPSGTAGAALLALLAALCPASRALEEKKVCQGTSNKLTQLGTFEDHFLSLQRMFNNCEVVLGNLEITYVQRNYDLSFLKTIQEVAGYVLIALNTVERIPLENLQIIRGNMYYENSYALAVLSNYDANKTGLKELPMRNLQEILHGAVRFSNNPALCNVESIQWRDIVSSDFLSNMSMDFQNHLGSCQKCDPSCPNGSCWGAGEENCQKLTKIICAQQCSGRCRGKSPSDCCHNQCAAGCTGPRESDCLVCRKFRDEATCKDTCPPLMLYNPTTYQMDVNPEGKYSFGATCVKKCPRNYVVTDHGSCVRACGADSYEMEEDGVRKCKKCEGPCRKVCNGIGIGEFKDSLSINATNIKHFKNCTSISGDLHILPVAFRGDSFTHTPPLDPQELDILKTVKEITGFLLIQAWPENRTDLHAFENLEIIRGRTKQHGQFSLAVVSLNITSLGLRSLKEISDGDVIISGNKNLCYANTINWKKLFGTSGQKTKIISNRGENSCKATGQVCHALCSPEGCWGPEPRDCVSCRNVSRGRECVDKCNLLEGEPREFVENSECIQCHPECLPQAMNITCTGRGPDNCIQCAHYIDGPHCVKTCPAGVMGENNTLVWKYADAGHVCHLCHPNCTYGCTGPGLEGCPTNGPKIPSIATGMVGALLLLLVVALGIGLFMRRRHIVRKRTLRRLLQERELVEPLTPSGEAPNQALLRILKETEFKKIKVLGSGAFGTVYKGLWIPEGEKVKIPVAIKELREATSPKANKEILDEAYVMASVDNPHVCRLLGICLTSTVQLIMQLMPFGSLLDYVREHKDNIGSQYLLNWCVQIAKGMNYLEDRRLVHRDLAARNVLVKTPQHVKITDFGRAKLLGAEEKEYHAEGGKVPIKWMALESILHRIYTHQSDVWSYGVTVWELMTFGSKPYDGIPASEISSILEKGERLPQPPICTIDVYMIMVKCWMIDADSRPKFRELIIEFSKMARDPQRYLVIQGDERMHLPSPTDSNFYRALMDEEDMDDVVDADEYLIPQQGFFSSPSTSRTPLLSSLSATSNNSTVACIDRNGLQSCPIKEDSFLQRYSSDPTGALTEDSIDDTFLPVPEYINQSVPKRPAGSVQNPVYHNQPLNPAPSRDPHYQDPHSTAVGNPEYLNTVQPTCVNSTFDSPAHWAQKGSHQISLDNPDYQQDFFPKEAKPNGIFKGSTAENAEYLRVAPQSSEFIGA
Description: as §6, §5

[3] = system: PC-9-OR (19del/T790M/C797S); experiment: CCK-8 cell proliferation, PC-9-OR; assay type: cell-based; conditions: PC9-OR, read-out: Average value of IC50 of inhibition against EGFR-mutant cells growth, PC-9-OR (19del/T790M/C797S)
From the text: as §4, §5

[4] = Pharmacokinetic parameters in rats; assay type: in vivo; conditions: male, Sprague-Dawley, plasma, rat
Description: Sprague-Dawley rats (males, 3 per group), weighing 180 g to 220 g, were administered test compounds intravenously and orally at doses of 1 mg/kg and 5 mg/kg, respectively. The compounds were dissolved in a mixed solvent (5% DMSO+10% Solutol+85% PBS) for intravenous injection. 0.5% CMC-Na solution (800 cps to 1200 cps) was used as a suspension agent for oral administration. At designated time points, 0.2 mL of blood samples were collected via the jugular vein and placed into tubes containing K2-EDTA, stored on ice, and then centrifuged. Sampling intervals for the injection group were 0.083, 0.25, 0.5, 1, 2, 4, 8, and 24 hours, while for the oral group, sampling intervals were 0.25, 0.5, 1, 2, 4, 6, 8, and 24 hours. The blood samples were centrifuged at 6800 g for 6 minutes at 2° C. to 8° C. within 1 hour after collection and stored frozen at approximately −80° C. Subsequently, 200 μL of MeOH was used to precipitate 20 μL of plasma samples containing 100 ng/mL IS. The mixture was vortexed for 1 minute and then centrifuged at 18000 g for 7 minutes. 200 μL of the supernatant was transferred to a 96-well plate, and 1 μL of the supernatant sample was injected for LC-MS/MS analysis. Finally, Phoenix WinNonlin7.0 software was used to calculate the pharmacokinetic (PK) parameters.

IC50 (EGFR^WT) [nM]	IC50 (EGFR^L858R/T790M/C797S) [nM]	IC50 (EGFR^19del/T790M/C797S) [nM]	IC50 (BaF3 parent cell; BaF3, CCK-8, 72 hours) [nM]	GI50 [1] [nM]	GI50 [2] [nM]	Structure (SMILES)	other results
342	1	3.4	3290	429	325	Cc1cc(N2CCOCC2)c2cc1Nc1ncc(Cl)c(n1)-c1c[nH]c3cc(ccc13)OCCCn1cc-2cn1 [HC8990, 2^5-Chloro-4^6-Methyl-4^4-morpholino-1^1H,5^1H-9-oxa-3-aza-1(3,6)-Indole-2(4,2)-Pyrimidin-5(4,1)Pyrazol-4(1,3)-benzenacyclononaphane]	IC50 ([3]; CCK-8, 72 hours): 531 nM
802	9.3	2.7	274	91	75	CCS(=O)(=O)n1cc2c3ccc(cc31)OCCCCn1cc(cn1)-c1cc(ccc1N1CCOCC1)Nc1ncc(Cl)c-2n1 [HC8714, 2^5-Chloro-1^1-Ethylsulfonyl-4^4-morpholino-1^1H,5^1H-10-oxa-3-aza-1(3,6)-Indole-2(4,2)-Pyrimidin-5(4,1)-Pyrazol-4(1,3)-Phenyldecane]	IC50 ([3]; CCK-8, 72 hours): 155 nM
–	–	–	2370	–	–	C=CC(=O)Nc1cc(Nc2nccc(-c3cn(C)c4ccccc34)n2)c(OC)cc1N(C)CCN(C)C [Osimertinib, reference compound]	IC50 ([3]; CCK-8, 72 hours): 2100 nM
> 1000	54.8	23.3	2230	229	327	CCc1cc(N2CCOCC2)c2cc1Nc1nccc(n1)-c1cn(S(=O)(=O)CC)c3cc(ccc13)OCCCn1ccc-2n1 [FBH-3-47, (Z)-4^6-ethyl-1^1-(ethylsulfonyl)-4^4-morpholino-1^1H,5^1H-9-oxa-3-aza-1(3,6)-indole-2(4,2)-pyrimidine-5(4,1)-pyrazol-4(1,3)-benzenacyclononaphane]	–
–	–	–	–	–	–	CCS(=O)(=O)n1cc2c3ccc(cc31)OCCCCCCOc1cc(c(C)cc1N1CCOCC1)Nc1ncc(Cl)c-2n1 [reference compound]	Cmax ([4]; IV 1 mg/kg): 2420 ± 165 ng/mL; clearance ([4]; IV 1 mg/kg): 16.2 ± 1.4 mL/min/kg; half-life ([4]; IV 1 mg/kg): 1.35 ± 0.18 h; Cmax ([4]; PO 5 mg/kg): 135 ng/mL; half-life ([4]; PO 5 mg/kg): 2.57 h; bioavailability ([4]; PO 5 mg/kg, read-out: F (oral bioavailability)): 11.9%
> 1000	53.2	23.3	1870	311	734	CCS(=O)(=O)n1cc2c3ccc(cc31)OCC(C)Cn1cc(cn1)-c1cc(c(OC)cc1N1CCOCC1)Nc1nccc-2n1 (stereo not shown) [WQX-1-80, (Z)-1^1-(ethylsulfonyl)-4^6-Methoxy-7-methyl-4^4-morpholino-1^1H,5^1H-9-oxa-3-aza-1(3,6)-indole-2(4,2)-pyrimidin-5(4,1)-pyrazol-4(1,3)-benzenacyclononaphane]	–
186	11.8	7.4	3180	371	455	CCOc1cc(N2CCOCC2)c2cc1Nc1nccc(n1)-c1cn(S(=O)(=O)CC)c3cc(ccc13)OCCCn1cc-2cn1 [HC9596, (Z)-4^6-ethoxy-1^1-ethylsulfonyl-4^4-morpholino-1^1H,5^1H-9-oxa-3-aza-1(3,6)-indole-2(4,2)-pyrimidine-5(4,1)-pyrazole-4(1,3)-benzenacyclononaphane]	–
> 1000	183	82.3	–	–	–	CCS(=O)(=O)n1cc2c3ccc(cc31)OCCCn1cc(cn1)-c1cc(cc(C3CCCC3)c1N1CCOCC1)Nc1ncc(Cl)c-2n1 [HC9001, 2^5-chloro-4^5-cyclopentyl-1^1-ethylsulfonyl-4^4-morpholino-1^1H,5^1H-9-oxa-3-aza-1(3,6)-indole-2(4,2)-pyrimidin-5(4,1)-pyrazol-4(1,3)-benzenacyclononaphane]	–
> 1000	12.6	8.2	2000	465	–	CCS(=O)(=O)n1cc2c3ccc(cc31)OC(C)CCn1cc(cn1)-c1cc(c(OC)cc1N1CCOCC1)Nc1nccc-2n1 (stereo not shown) [WQX-1-86, (Z)-1^1-(ethylsulfonyl)-4^6-methoxy-8-methyl-4^4-morpholino-1^1H,5^1H-9-oxa-3-aza-1(3,6)-indole-2(4,2)-pyrimidin-5(4,1)-pyrazol-4(1,3)-benzenacyclononaphane]	–
> 1000	59	24.7	–	–	–	C=C(C)c1cc2cc(c1N1CCOCC1)-c1cnn(c1)CCCOc1ccc3c(cn(S(=O)(=O)CC)c3c1)-c1nc(ncc1Cl)N2 [HC9002, 2^5-Chloro-1^1-ethylsulfonyl-4^4-morpholino-4^5-propenyl-1^1H,5^1H-9-oxa-3-aza-1(3,6)-indole-2(4,2)-pyrimidine-5(4,1)-pyrazole-4(1,3)-benzenacyclononaphane]	–
> 1000	384	195	–	–	–	CCS(=O)(=O)n1cc2c3ccc(cc31)OCCCn1cc(cn1)-c1cc(cc(/C=C/C(C)(C)C)c1N1CCOCC1)Nc1ncc(Cl)c-2n1 [HC9004]	–
898	1.4	2.9	–	–	–	CCS(=O)(=O)n1cc2c3ccc(cc31)OCCCn1cc(cn1)-c1cc(c(OC)cc1N1CCN(C)CC1)Nc1nccc-2n1 [HC9592, (Z)-1^1-ethylsulfonyl-4^6-methoxy-4^4-(4-methylpiperazin-1-yl)-1^1H,5^1H-9-oxa-3-aza-1(3,6)-indole-2(4,2)-pyrimidine-5(4,1) pyrazole-4(1,3)-benzenacyclononaphane]	–

Structure (SMILES)	IC50 (EGFR^WT) [nM]	IC50 (EGFR^L858R/T790M/C797S) [nM]	IC50 (EGFR^19del/T790M/C797S) [nM]	IC50 (BaF3 parent cell; BaF3, CCK-8, 72 hours) [nM]	GI50 [1] [nM]	GI50 [2] [nM]	other results
COc1cc(N2CCC(N3CCN(C)CC3)CC2)ccc1Nc1ncc(Cl)c(Nc2ccccc2P(C)(C)=O)n1 [Brigatinib, reference compound]	–	–	–	–	221	777	IC50 (BaF3 parent cell; BaF3, 72 h): 1480 nM; IC50 ([3]; 72 h): 1450 nM

Source: patent US20260184725A1, “CYCLIC 2-AMINOPYRIMIDINE COMPOUND AND PHARMACEUTICAL COMPOSITION AND USE THEREOF” (SHANGHAI INSTITUTE OF ORGANIC CHEMISTRY, CHINESE ACADEMY OF …, priority 2023, published 2026)
